How the values were obtained:
[1] = target: Amyloid-beta precursor protein (Homo sapiens) (UniProt P05067); test: Inhibition of human recombinant amyloid beta (1 to 42) aggregation expressed in Escherichia coli BL21 (DE3) at 10 uM by Thioflavin S steady state fluorescence assay relative to control
[2] = target: Beta-secretase 1 (Homo sapiens) (UniProt P56817); test: Inhibition of human recombinant BACE-1 expressed in baculovirus expression system at 5 uM using panvera peptide as substrate measured after 1 hr by FRET assay relative to control
Beta-secretase 1 (Homo sapiens), sequence (P56817 whole entry): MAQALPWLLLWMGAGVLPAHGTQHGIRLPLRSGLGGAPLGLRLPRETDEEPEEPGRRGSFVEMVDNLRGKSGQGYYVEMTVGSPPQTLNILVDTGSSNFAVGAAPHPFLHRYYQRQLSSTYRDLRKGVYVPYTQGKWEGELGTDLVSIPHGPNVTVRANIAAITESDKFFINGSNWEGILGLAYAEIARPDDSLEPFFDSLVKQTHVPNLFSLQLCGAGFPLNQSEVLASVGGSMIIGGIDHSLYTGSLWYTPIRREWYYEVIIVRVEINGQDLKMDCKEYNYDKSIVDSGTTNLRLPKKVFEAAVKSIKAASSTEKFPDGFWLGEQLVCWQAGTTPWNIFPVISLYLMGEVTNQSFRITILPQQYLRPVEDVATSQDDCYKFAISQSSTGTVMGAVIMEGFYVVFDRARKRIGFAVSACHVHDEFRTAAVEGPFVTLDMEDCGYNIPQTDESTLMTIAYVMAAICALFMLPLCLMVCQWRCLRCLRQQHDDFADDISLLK

Glutamate NMDA receptor = test: Antagonist activity at NMDA receptor in rat CGN cells assessed as […] in intracellular calcium level incubated for 30 mins in presence of Fura-2AM followed by NMDA/glycine stimulation by fluorescence spectrometer analysis; type: cell-based
Cholinesterase [3] = target: T1, Cholinesterase (Homo sapiens, UniProt P06276); test: Inhibition of human serum BChE using butyrylthiocholine iodide as substrate preincubated for 20 mins followed by substrate addition by spectrophotometry analysis
T1 sequence (P06276 whole entry): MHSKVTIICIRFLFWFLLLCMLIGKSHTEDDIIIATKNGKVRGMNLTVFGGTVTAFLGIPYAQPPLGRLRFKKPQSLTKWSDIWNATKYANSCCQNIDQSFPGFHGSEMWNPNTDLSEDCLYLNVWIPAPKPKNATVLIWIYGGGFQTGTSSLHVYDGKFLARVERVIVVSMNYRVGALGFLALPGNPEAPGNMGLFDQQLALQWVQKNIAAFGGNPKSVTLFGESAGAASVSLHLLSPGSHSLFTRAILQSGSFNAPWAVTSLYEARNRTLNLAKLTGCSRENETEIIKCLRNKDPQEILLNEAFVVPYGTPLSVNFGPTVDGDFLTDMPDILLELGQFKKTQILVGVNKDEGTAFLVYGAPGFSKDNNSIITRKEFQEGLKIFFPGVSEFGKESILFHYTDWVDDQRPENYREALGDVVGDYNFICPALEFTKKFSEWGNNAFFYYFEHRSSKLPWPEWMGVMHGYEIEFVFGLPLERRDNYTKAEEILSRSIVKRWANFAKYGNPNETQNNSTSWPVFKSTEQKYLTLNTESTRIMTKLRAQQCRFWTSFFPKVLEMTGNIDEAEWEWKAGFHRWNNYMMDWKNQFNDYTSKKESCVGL

Acetylcholinesterase [4] = target: T2, Acetylcholinesterase (Homo sapiens, UniProt P22303); test: Potency index, ratio of IC50 for 6-cholorotacrine to compound IC50 for Inhibition of human recombinant AChE expressed in HEK293 cells; type: cell-based
T2 sequence (P22303 whole entry): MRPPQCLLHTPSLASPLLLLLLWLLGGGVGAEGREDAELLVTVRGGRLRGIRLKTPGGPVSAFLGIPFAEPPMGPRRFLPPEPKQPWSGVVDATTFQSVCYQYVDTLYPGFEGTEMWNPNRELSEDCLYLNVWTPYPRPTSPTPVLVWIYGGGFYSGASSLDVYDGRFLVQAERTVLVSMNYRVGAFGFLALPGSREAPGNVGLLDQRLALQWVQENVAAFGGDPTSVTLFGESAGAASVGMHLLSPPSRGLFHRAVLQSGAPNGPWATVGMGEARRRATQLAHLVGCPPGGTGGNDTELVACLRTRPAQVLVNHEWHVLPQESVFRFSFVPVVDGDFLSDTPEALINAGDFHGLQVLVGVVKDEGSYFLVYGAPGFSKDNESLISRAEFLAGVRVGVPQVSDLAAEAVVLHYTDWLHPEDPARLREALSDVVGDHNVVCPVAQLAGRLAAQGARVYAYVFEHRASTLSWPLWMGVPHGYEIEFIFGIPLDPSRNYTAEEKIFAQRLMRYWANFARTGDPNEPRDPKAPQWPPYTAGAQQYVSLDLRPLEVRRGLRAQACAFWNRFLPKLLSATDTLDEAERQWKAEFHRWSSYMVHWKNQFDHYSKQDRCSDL

in vitro = settings: PAMPA
Description: Permeability of the compound measured after compound dilution in PBS/EtOH buffer (70:30) by PAMPA-BBB assay

[5] = target: Microtubule-associated protein tau (Homo sapiens) (UniProt P10636); test: Inhibition of tau aggregation (unknown origin) expressed in Escherichia coli BL21 (DE3) at 10 uM by Thioflavin S steady state fluorescence assay relative to control
Microtubule-associated protein tau (Homo sapiens), sequence (P10636 whole entry): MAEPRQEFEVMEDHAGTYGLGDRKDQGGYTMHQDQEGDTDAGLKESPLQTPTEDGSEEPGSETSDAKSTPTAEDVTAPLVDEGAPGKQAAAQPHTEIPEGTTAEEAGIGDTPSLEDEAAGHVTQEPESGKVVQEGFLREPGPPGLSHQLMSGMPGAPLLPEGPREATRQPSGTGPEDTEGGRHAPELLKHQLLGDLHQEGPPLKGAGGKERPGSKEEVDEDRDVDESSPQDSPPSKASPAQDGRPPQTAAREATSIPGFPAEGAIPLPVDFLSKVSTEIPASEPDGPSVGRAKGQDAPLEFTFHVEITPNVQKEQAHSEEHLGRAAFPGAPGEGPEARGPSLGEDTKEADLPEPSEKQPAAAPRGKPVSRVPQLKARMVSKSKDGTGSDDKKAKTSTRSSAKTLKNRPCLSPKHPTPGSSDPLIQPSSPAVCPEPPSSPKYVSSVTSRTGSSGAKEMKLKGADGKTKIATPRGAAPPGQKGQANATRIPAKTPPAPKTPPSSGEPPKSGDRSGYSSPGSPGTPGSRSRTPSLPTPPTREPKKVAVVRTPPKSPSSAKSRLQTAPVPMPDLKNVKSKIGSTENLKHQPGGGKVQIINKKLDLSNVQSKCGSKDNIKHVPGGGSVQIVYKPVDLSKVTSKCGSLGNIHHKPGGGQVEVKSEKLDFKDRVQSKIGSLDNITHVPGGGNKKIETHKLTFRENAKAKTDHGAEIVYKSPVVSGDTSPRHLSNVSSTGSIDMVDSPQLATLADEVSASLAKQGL

Acetylcholinesterase [6] = target: T2, Acetylcholinesterase; test: Inhibition of human recombinant AChE expressed in HEK293 cells using acetylthiocholine iodide as substrate preincubated for 20 mins followed by substrate addition by spectrophotometry analysis
Cholinesterase [7] = target: T1, Cholinesterase; test: Potency index, ratio of IC50 for 6-cholorotacrine to compound IC50 for Inhibition of human serum BChE
[8] = target: T3, Glutamate NMDA receptor (Rattus norvegicus) (UniProt P35439+Q00959+Q00960+Q00961+Q62645+Q8VHN2+Q9R1M7); test: Potency index, ratio of memantine IC50 to compound IC50 for antagonist activity at NMDA receptor in rat CGN cells; type: cell-based
[9] = target: T3, Glutamate NMDA receptor (Rattus norvegicus); test: Potency index, ratio of benzoho-moadamantanamine IC50 to compound IC50 for antagonist activity at NMDA receptor in rat CGN cells; type: cell-based
[10] = target: Glutamate NMDA receptor; GRIN1/GRIN2B (Homo sapiens, UniProt Q05586+Q13224); test: Inhibition of recombinant GluN1/GluN2B receptor (unknown origin) expressed in HEK293 cells by patch-clamp method; type: cell-based
Glutamate NMDA receptor; GRIN1/GRIN2B, sequence (Q13224 whole entry, other chains not shown): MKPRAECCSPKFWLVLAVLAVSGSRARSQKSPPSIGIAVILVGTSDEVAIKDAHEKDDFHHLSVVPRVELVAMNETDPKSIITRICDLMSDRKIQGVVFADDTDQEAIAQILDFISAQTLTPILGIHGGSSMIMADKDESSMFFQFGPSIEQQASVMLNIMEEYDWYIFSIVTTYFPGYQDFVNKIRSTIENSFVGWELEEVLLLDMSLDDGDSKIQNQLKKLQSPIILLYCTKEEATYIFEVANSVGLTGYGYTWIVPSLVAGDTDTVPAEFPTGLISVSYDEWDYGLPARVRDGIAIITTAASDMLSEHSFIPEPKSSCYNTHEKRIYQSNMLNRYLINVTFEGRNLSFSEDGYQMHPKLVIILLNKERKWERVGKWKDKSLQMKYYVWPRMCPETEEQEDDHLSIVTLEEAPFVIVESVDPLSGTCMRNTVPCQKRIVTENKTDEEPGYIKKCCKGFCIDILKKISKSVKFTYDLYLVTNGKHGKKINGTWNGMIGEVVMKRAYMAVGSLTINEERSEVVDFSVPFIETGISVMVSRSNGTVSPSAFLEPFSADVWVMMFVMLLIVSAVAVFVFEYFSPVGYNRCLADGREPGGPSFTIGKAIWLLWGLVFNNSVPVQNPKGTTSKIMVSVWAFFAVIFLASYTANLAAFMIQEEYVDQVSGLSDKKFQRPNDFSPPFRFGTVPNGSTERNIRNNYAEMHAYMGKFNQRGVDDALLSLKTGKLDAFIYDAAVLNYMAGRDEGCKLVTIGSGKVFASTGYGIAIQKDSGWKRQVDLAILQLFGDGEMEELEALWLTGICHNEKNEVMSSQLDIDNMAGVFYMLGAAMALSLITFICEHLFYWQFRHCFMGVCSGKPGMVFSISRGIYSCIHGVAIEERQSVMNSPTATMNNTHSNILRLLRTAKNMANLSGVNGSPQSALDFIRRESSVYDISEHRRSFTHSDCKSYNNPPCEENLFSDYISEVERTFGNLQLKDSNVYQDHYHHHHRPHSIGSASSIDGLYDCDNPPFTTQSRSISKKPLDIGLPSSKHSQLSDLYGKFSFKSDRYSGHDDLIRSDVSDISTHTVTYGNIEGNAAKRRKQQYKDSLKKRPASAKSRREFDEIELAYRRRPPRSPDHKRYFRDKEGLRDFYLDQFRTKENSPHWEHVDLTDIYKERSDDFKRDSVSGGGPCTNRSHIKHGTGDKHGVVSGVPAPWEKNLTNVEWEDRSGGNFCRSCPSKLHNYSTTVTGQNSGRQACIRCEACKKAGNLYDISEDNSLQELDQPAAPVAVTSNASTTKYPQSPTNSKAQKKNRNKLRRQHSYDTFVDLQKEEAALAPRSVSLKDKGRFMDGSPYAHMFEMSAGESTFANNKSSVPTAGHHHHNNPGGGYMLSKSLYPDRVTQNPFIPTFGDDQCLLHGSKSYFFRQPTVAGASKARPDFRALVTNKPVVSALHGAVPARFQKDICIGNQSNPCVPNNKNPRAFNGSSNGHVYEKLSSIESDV

Amyloid-beta precursor protein (Homo sapiens), sequence (P05067 whole entry): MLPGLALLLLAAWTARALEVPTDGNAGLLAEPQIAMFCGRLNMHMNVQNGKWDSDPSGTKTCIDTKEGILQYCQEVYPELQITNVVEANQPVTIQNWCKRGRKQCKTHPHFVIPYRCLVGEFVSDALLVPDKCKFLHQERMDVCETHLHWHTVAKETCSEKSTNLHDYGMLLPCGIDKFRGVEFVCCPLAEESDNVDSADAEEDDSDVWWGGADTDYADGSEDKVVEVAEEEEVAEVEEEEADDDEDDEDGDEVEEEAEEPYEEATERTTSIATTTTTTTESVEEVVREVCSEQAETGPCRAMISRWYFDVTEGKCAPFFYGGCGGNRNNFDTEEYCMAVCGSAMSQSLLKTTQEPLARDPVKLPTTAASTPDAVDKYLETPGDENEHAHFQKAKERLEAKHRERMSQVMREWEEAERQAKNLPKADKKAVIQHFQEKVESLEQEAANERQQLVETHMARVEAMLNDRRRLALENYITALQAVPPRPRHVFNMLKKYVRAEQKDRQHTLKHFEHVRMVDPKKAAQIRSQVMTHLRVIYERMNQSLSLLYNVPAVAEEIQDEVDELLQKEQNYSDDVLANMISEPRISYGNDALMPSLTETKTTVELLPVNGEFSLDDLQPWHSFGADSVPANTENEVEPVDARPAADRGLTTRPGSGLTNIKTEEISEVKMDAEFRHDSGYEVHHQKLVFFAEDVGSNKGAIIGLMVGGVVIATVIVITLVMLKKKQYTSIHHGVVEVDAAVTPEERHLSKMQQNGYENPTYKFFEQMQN

O=C(CCCNc1c2c(nc3cc(Cl)ccc13)CCCC2)NC12CC3CC(F)(CC(C1)c1ccccc13)C2
inhibition [1]: < 5%
inhibition [2]: 18%
IC50 (Glutamate NMDA receptor): 7000 nM
IC50 (Cholinesterase [3]): 2300 nM
Ratio IC50 (Acetylcholinesterase [4]): 6 to 44
Papp (in vitro): 9.8 ×10⁻⁶ cm/s
inhibition [5]: 10.2%
IC50 (Acetylcholinesterase [6]): 1.4 nM

NC12CC3CC(F)(CC(C1)c1cc(NC(=O)CCCCNc4c5c(nc6cc(Cl)ccc46)CCCC5)ccc13)C2 (configuration not stated)
inhibition [1]: < 5%
Ratio IC50 (Cholinesterase [7]): 24
inhibition [2]: 18%
IC50 (Glutamate NMDA receptor): 3400 nM
IC50 (Cholinesterase [3]): 20 nM
Ratio IC50 (Acetylcholinesterase [4]): 44
Papp (in vitro): 3.1 ×10⁻⁶ cm/s
inhibition [5]: 22.9%
IC50 (Acetylcholinesterase [6]): 2.5 nM

Nc1c2c(nc3cc(Cl)ccc13)CCCC2
inhibition [2]: 18%
Papp (in vitro): 20 ×10⁻⁶ cm/s
inhibition [5]: < 5%

NC12CC3CC(F)(CC(C1)c1cc(NC(=O)CCCNc4c5c(nc6cc(Cl)ccc46)CCCC5)ccc13)C2 (configuration not stated)
Ratio IC50 [8]: 1.7
inhibition [1]: < 5%
inhibition [2]: 18%
IC50 (Glutamate NMDA receptor): 1200 nM
IC50 (Cholinesterase [3]): 500 nM
Ratio IC50 (Acetylcholinesterase [4]): 6 to 44
Ratio IC50 [9]: 2
Papp (in vitro): 2.7 ×10⁻⁶ cm/s
inhibition [5]: 6.9%
IC50 (Acetylcholinesterase [6]): 0.3 nM

O=C(CCCCNc1c2c(nc3cc(Cl)ccc13)CCCC2)NC12CC3CC(F)(CC(C1)c1ccccc13)C2
inhibition [1]: 9%
inhibition [2]: 18%
IC50 (Glutamate NMDA receptor): 8300 nM
IC50 (Cholinesterase [3]): 2400 nM
Ratio IC50 (Acetylcholinesterase [4]): 6 to 44
Papp (in vitro): 9 ×10⁻⁶ cm/s
inhibition [5]: 12.6%
IC50 (Acetylcholinesterase [6]): 1.3 nM

FC12CC3CC(NCCCCCNc4c5c(nc6cc(Cl)ccc46)CCCC5)(CC(C1)c1ccccc13)C2
Ratio IC50 [8]: 1.7
inhibition [1]: 12.3%
Ratio IC50 (Cholinesterase [7]): 2
inhibition [2]: 18%
IC50 (Glutamate NMDA receptor): 900 nM
IC50 (Cholinesterase [3]): 200 nM
Ratio IC50 (Acetylcholinesterase [4]): 6 to 44
Ratio IC50 [9]: 2
Papp (in vitro): 6.5 ×10⁻⁶ cm/s
inhibition [5]: 20.7%
IC50 (Acetylcholinesterase [6]): 1.4 nM

CC12CC3CC(C)(C1)CC(N)(C3)C2
inhibition [2]: 18%

COc1ccc2nc3c(c(NCCCCCNC(=S)NC45CC6CC(CC(C6)C4)C5)c2c1)CCCC3
Ki [10]: 1800 nM

FC12CC3CC(NCCCCNc4c5c(nc6cc(Cl)ccc46)CCCC5)(CC(C1)c1ccccc13)C2
inhibition [1]: 8.4%
inhibition [2]: 18%
IC50 (Glutamate NMDA receptor): 3300 nM
IC50 (Cholinesterase [3]): 1100 nM
Ratio IC50 (Acetylcholinesterase [4]): 6 to 44
Papp (in vitro): 6.3 ×10⁻⁶ cm/s
inhibition [5]: 22%
IC50 (Acetylcholinesterase [6]): 2 nM

NC12CC3CC(F)(CC(C1)c1ccccc13)C2
Ratio IC50 [8]: 1.7
inhibition [2]: 18%
IC50 (Glutamate NMDA receptor): 1900 nM

From ChEMBL document CHEMBL4304786, “A novel class of multitarget anti-Alzheimer benzohomoadamantane‒chlorotacrine hybrids modulating cholinesterases and glutamate NMDA receptors” (Eur J Med Chem, 2019)
